Data on 25 molecules can be found in patent US7550469B2, “Heterocyclic amide derivatives and their use as dopamine D3 receptor ligands” (Aventis Pharmaceuticals Inc., priority 2001, dated 2009).

In this assay the target is T1, cloned human dopamine D3 receptors (Homo sapiens, UniProt P35462).
T1 construct: expressed in transfected cells; membrane homogenate
Description: [N-Methyl-3H]Spiroperidol binding to cloned human dopamine D3 receptors (Protocol 1). In short, it runs like this:
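Radioligand displacement with [N-methyl-3H]spiroperidol used a physiological-salt Tris buffer (0.05 M, pH 7.7; NaCl 120 mM, KCl 5 mM, CaCl2 2 mM, MgCl2 1 mM) and membranes of a high-expressing stable CHO clone carrying human D3. Total ligand concentration came from measured added CPM; 0.1% ascorbic acid was optional for oxidizable compounds.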

Setting [1] is: the 18th table, read-out: D3 Ki.
Where [2] appears, read: the 13th table, unit inferred, read-out: D3Ki.
[3] abbreviates: the 14th table, read-out: D3 Ki.
[4] abbreviates: the 21st table, read-out: D3 Ki.
[5] abbreviates: the 23rd table, read-out: D3 Ki.

Structures are written as SMILES. Like-named read-outs stand apart in the source and are kept apart here.

T1 sequence (P35462 whole entry): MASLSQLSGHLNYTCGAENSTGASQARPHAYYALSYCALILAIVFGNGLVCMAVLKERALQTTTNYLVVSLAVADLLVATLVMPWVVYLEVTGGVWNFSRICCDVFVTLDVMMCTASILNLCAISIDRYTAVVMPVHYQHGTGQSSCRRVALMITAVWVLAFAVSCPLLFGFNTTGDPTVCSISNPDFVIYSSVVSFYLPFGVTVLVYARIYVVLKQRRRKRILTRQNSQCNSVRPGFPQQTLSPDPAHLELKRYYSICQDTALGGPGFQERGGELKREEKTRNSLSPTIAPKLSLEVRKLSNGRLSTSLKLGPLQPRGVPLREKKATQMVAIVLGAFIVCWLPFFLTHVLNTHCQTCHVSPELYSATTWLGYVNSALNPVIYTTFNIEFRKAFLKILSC

Consider `COc1ccc(C(=O)NCCCCN2C3CCC2CC(c2noc4cc(F)ccc24)C3)cc1OC` (stereo not shown) [compound 816332], for which the Ki (the 15th table, read-out: D3 Ki) was 588 nM.

With `O=C(NCCCCN1CCN(c2c(Cl)sc3cc(F)ccc23)CC1)c1cc2ccccc2s1` [compound 815064], the Ki (read-out: D3K1) turned out to be 1.9 nM.

On to `O=C(NCc1sccc1CN1CCN(c2csc3cc(F)ccc23)CC1)c1ccc(C(F)(F)F)cc1` [compound 826311], for which the Ki under setting [1] was 74 nM.

As to `O=C(NCCCCN1CCCN(c2csc3cc(C(F)(F)F)ccc23)CC1)c1cnc2ccccc2n1` [S980643], the Ki under setting [2] is 96 nM.

Consider `O=C(N[C@H](CO)CCCN1CCN(c2csc3cc(C(F)(F)F)ccc23)CC1)c1cc2ccccc2[nH]1` [compound 815698], for which the Ki was determined as 329 nM (Table 2, read-out: D3K1); 329 nM (read-out: D3K1); 329 nM under setting [3].

As for `O=C(NCC(CO)CCN1CCN(c2csc3cc(C(F)(F)F)ccc23)CC1)c1ccncc1` (stereo not shown) [818940ES], the Ki (Table 2, read-out: D3K1) turned out to be 307 nM.

For `C[C@@H]1CN(c2csc3cc(F)ccc23)C[C@H](C)N1CCCCNC(=O)c1ccc(OC(F)(F)F)cc1` [compound 827049], the Ki under setting [4] is 50.9 nM.

In the case of `O=C(NCCCCN1CCCN(c2csc3cc(C(F)(F)F)ccc23)CC1)c1ccc(-c2ccccc2F)cc1` [S908665], the Ki under setting [2] was 20.3 nM.

Turning to `CC(C)(C)c1cc(C(C)(C)C)c2oc(C(=O)NCCCCN3CCCN(c4csc5cc(F)ccc45)CC3)cc2c1` [compound 827132], the Ki runs as follows: (Table 2, read-out: D3K1) 129 nM; (the 16th table, read-out: D3 Ki) 129 nM.

`O=C(NC/C=C/CN1CCN(c2csc3cc(C(F)(F)F)ccc23)CC1)c1ccc(F)cc1` [compound 827719]: the Ki (read-out: D3K1) stood at 51 nM.

As for `FC(F)(F)c1ccc2c(N3CCN(C[C@@H]4C[C@H]4CNCCc4cccnc4)CC3)csc2c1` [compound 832281], the Ki under setting [5] came to 5.59 nM.

For `O=C(N[C@@H](CO)CCCN1CCN(c2csc3cc(C(F)(F)F)ccc23)CC1)c1ccc(Br)cc1` [compound 815679], the Ki (Table 2, read-out: D3K1) is 129 nM; the Ki (read-out: D3K1) is 129 nM; the Ki under setting [3] was found to be 129 nM.

In the case of `FC(F)(F)c1cccc2c(C3CCN(C[C@@H]4C[C@H]4CNCC45CC6CC(CC(C6)C4)C5)CC3)noc12` [compound 832783], the Ki under setting [5] was 47.6 nM.

For the molecule `CCCCc1ccc(C(=O)NCCCCCN2CCC(c3noc4ccsc34)CC2)cc1` [compound 816218], the Ki under setting [2] amounted to 316 nM.

Regarding `O=C(NCCCCN1CCCN(c2csc3cc(F)ccc23)CC1)c1cc2ccccc2o1` [822226G], the Ki under setting [2] was 0.82 nM.

Turning to `O=C(NC(CO)CCCN1CCN(c2csc3cc(C(F)(F)F)ccc23)CC1)c1ccc2c(c1)S(=O)(=O)c1ccccc1C2=O` (stereo not shown) [compound 815685], the Ki (Table 2, read-out: D3K1) was found to be 186 nM; the Ki (read-out: D3K1) turned out to be 186 nM; the Ki under setting [3] is 186 nM.

As to `Cc1ccccc1C(=O)NCCCCN1[C@H](C)CN(c2csc3cc(C(F)(F)F)ccc23)C[C@@H]1C` [compound 826931], under setting [4], the Ki turned out to be 219 nM.

In the case of `O=C(NCc1sccc1CN1CCN(c2csc3cc(F)ccc23)CC1)c1cc2ccccc2s1` [818321G], the Ki under setting [1] amounted to 78.7 nM.

For the molecule `O=C(NCc1sccc1CN1CCN(c2csc3cc(F)ccc23)CC1)c1cccc(Cl)c1` [compound 826296], the Ki under setting [1] is 106 nM.

For the molecule `COc1ccc2[nH]c(C(=O)NCCCCCN3CCN(c4csc5cc(C(F)(F)F)ccc45)CC3)cc2c1` [compound 826795], the Ki runs as follows: (read-out: D3K1) 13.9 nM; under setting [3], 13.9 nM.

Take `Cn1c(C(=O)NCCCCN2CCCN(c3csc4cc(C(F)(F)F)ccc34)CC2)cc2ccccc21` [S980648]: the Ki under setting [2] amounted to 35 nM.

In the case of `O=C(NCCCCN1CCN(c2c(-c3ccccc3)sc3cc(F)ccc23)CC1)c1ccc(C(F)(F)F)cc1` [compound 815871], the Ki by setting is: (Table 2, read-out: D3K1) 796 nM; under setting [3], 796 nM.

For the molecule `C[C@@H]1CN(c2csc3cc(C(F)(F)F)ccc23)C[C@H](C)N1CCCCNC(=O)c1ccc2cc[nH]c2c1` [compound 826955], the Ki under setting [4] is 70.5 nM.

With `O=C(NCCCCN1CCCN(c2csc3cc(F)ccc23)CC1)c1ccc(Cl)cc1` [compound 822150], under setting [2], the Ki came out at 6.3 nM.

As to `COc1ccc(C(=O)NCCCCCN2CCC(c3noc4ccsc34)CC2)cc1OC` [compound 816215], the Ki under setting [2] amounted to 272 nM.
